The numbers were not newly measured in paper PMC12308805, “Ultrahigh-Throughput Virtual Screening Strategies against PPI Targets: A Case Study of STAT Inhibitors” (Journal of Chemical Information and Modeling, 2025), which cites them from elsewhere.

Square brackets hold non-standard residues; d marks the D form. Peptide text beside a SMILES is read from it. * marks the point of attachment. pY = N[C@@H](Cc1ccc(OP(=O)(O)O)cc1)C(=O)O; X1 = O=C(c1cc2cc(OP(=O)(O)O)ccc2[nH]1)*; aThr = C[C@H](O)[C@H](N)C(=O)O

The first data set concerns STAT3. To be noted: cited from earlier work.
`CC(C)C[C@H](NC(=O)c1cc2cc(OP(=O)(O)O)ccc2[nH]1)C(=O)N1CCC[C@H]1C(=O)N[C@@H](CCC(N)=O)C(=O)N[C@H](C(N)=O)[C@@H](C)O` [CHEMBL485921] (X1-LPQT-NH2): the “Type (known STAT3 active)” value was “Active”.
As to `CC(=O)N[C@@H](Cc1ccc(OP(=O)(O)O)cc1)C(=O)N[C@@H](CC(C)C)C(=O)N1CCC[C@H]1C(=O)N[C@@H](CCC(N)=O)C(=O)N[C@H](C(=O)N[C@H](C(N)=O)C(C)C)[C@H](C)O` [CHEMBL502473], the “Type (known STAT3 active)” value is “Active”.
Regarding `CC(=O)N[C@@H](Cc1ccc(OP(=O)(O)O)cc1)C(=O)N[C@H]1CCc2cccc3c2N(C1=O)[C@H](C(=O)N[C@@H](CCC(N)=O)C(=O)N[C@H](C(N)=O)[C@@H](C)O)C3` [CHEMBL503765], the “Type (known STAT3 active)” value is recorded as “Active”.
Consider `CC(=O)N[C@@H](Cc1ccc(OP(=O)(O)O)cc1)C(=O)N[C@@H](CC(C)C)C(=O)N1CCC[C@H]1C(=O)N[C@@H](CCC(N)=O)C(=O)N[C@H](C(N)=O)[C@H](C)O` [CHEMBL505076] (Ac-[pY]LPQ[aThr]-NH2), for which the “Type (known STAT3 active)” value is “Active”.
In the case of `CC(C)C[C@H](NC(=O)/C=C/c1ccc(OP(=O)(O)O)cc1)C(=O)N1CCC[C@H]1C(=O)NCCCC(N)=O` [CHEMBL573048], the “Type (known STAT3 active)” value was “Active”.
Consider `CC(C)C[C@H](NC(=O)/C=C/c1ccc(OP(=O)(O)O)cc1)C(=O)N1CCC[C@H]1C(=O)N[C@@H](CC(N)=O)C(=O)NCc1ccccc1` [CHEMBL573901], for which the “Type (known STAT3 active)” value was “Active”.
As for `CC(C)C[C@H](NC(=O)/C=C/c1ccc(OP(=O)(O)O)cc1)C(=O)N1C[C@H]2C[C@H]2[C@H]1C(=O)N[C@H](C)CCC(N)=O` [CHEMBL576784], the “Type (known STAT3 active)” value was “Active”.
Regarding `CC(C)C[C@H](NC(=O)/C=C/c1ccc(OP(=O)(O)O)cc1)C(=O)N1CCC[C@H]1C(=O)N[C@H](C)CCC(N)=O` [CHEMBL578635], the “Type (known STAT3 active)” value was “Active”.
Regarding `CC(C)C[C@H](NC(=O)/C=C/c1ccc(OP(=O)(O)O)cc1)C(=O)N1C[C@H]2C[C@H]2[C@H]1C(=O)N[C@@H](CCC(N)=O)COCc1ccccc1` [CHEMBL583727], the “Type (known STAT3 active)” value is reported as “Active”.
In the case of `CC(C)C[C@H](NC(=O)/C=C/c1ccc(OP(=O)(O)O)cc1)C(=O)N1CCC[C@H]1C(=O)N[C@@H](CCC(N)=O)[C@@H](C)OCc1ccccc1` [CHEMBL583758], the “Type (known STAT3 active)” value is recorded as “Active”.
Take `CC(C)C[C@H](NC(=O)/C=C/c1ccc(OP(=O)(O)O)cc1)C(=O)N1CCC[C@H]1C(=O)N[C@H](C)COC(N)=O` [CHEMBL584376]: the “Type (known STAT3 active)” value is given as “Active”.

Still in this data set, the particulars now being: sheet 6QHD_actives_decoys; known STAT3 actives of the retrospective screening set; ref ChEMBL / literature; cited from earlier work.
With `COC(=O)[C@H](CCC(N)=O)NC(=O)[C@@H]1Cc2cccc3c2N1C(=O)[C@@H](NC(=O)/C=C/c1ccc(OP(=O)(O)O)cc1)CC3` [CHEMBL503365], the “Type (known STAT3 active)” value is “Active”.
As to `NC(=O)CC[C@H](NC(=O)[C@@H]1Cc2cccc3c2N1C(=O)[C@@H](NC(=O)/C=C/c1ccc(OP(=O)(O)O)cc1)C=C3)C(=O)NCc1ccccc1` [CHEMBL508912], the “Type (known STAT3 active)” value was “Active”.
With `NC(=O)CC[C@H](NC(=O)[C@@H]1Cc2cccc3c2N1C(=O)[C@@H](NC(=O)/C=C/c1ccc(OP(=O)(O)O)cc1)CC3)C(=O)O` [CHEMBL510008], the “Type (known STAT3 active)” value is reported as “Active”.
Regarding `NC(=O)C1CCN(C(=O)[C@@H]2Cc3cccc4c3N2C(=O)[C@@H](NC(=O)/C=C/c2ccc(OP(=O)(O)O)cc2)CC4)C1` (stereo partly shown) [CHEMBL515762], the “Type (known STAT3 active)” value was “Active”.
Consider `CC(=O)NC[C@H](CCC(N)=O)NC(=O)[C@@H]1CCCN1C(=O)[C@H](CC(C)C)NC(=O)/C=C/c1ccc(OP(=O)(O)O)cc1` [CHEMBL573442], for which the “Type (known STAT3 active)” value is on record as “Active”.
As to `CC(C)C[C@H](NC(=O)/C=C/c1ccc(OP(=O)(O)O)cc1)C(=O)N1C[C@H]2C[C@H]2[C@H]1C(=O)N[C@@H](CCC(N)=O)[C@@H](C)OCc1ccccc1` [CHEMBL573443], the “Type (known STAT3 active)” value is given as “Active”.
Consider `CC(C)C[C@H](NC(=O)/C=C/c1ccc(OP(=O)(O)O)cc1)C(=O)N1CCC[C@H]1C(=O)N[C@@H](CCC(N)=O)COC(N)=O` [CHEMBL573643], for which the “Type (known STAT3 active)” value is “Active”.
Take `CC(C)C[C@H](NC(=O)/C=C/c1ccc(OP(=O)(O)O)cc1)C(=O)N1CCC[C@H]1C(=O)N[C@H](COCc1ccccc1)COC(N)=O` [CHEMBL573902]: the “Type (known STAT3 active)” value is “Active”.
As for `CC(C)C[C@H](NC(=O)/C=C/c1ccc(OP(=O)(O)O)cc1)C(=O)N1CCC[C@H]1C(=O)N[C@@H](CCC(N)=O)Cc1ccc(O)cc1` [CHEMBL573903], the “Type (known STAT3 active)” value is given as “Active”.
For `CC(C)C[C@H](NC(=O)/C=C/c1ccc(OP(=O)(O)O)cc1)C(=O)N1CCC[C@H]1C(=O)N[C@@H](CCC(N)=O)COCc1ccccc1` [CHEMBL573904], the “Type (known STAT3 active)” value was “Active”.
Regarding `CC(C)C[C@H](NC(=O)/C=C/c1ccc(OP(=O)(O)O)cc1)C(=O)N1C[C@H]2C[C@H]2[C@H]1C(=O)N[C@@H](CCC(N)=O)C(C)C` [CHEMBL573930], the “Type (known STAT3 active)” value is “Active”.
For `CC(C)C[C@H](NC(=O)/C=C/c1ccc(OP(=O)(O)O)cc1)C(=O)N1CCC[C@H]1C(=O)NCCNC(N)=O` [CHEMBL574636], the “Type (known STAT3 active)” value was “Active”.
On to `CC(C)C[C@H](NC(=O)/C=C/c1ccc(OP(=O)(O)O)cc1)C(=O)N1C[C@H]2C[C@H]2[C@H]1C(=O)N[C@@H](CCC(N)=O)C(=O)NCc1ccccc1` [CHEMBL575497], for which the “Type (known STAT3 active)” value is “Active”.
Regarding `CC(C)C[C@H](NC(=O)/C=C/c1ccc(OP(=O)(O)O)cc1)C(=O)N1CCC[C@H]1C(=O)NCCOC(N)=O` [CHEMBL576590], the “Type (known STAT3 active)” value is listed as “Active”.
Consider `CC(C)C[C@H](NC(=O)/C=C/c1ccc(OP(=O)(O)O)cc1)C(=O)N1C[C@H]2C[C@H]2[C@H]1C(=O)NCCCC(N)=O` [CHEMBL577143], for which the “Type (known STAT3 active)” value is listed as “Active”.
On to `CCCC[C@H](CCC(N)=O)NC(=O)[C@@H]1[C@@H]2C[C@@H]2CN1C(=O)[C@H](CC(C)C)NC(=O)/C=C/c1ccc(OP(=O)(O)O)cc1` [CHEMBL583116], for which the “Type (known STAT3 active)” value was “Active”.
As to `CC(C)C[C@H](NC(=O)/C=C/c1ccc(OP(=O)(O)O)cc1)C(=O)N1C[C@H]2C[C@H]2[C@H]1C(=O)N[C@@H](CCC(N)=O)[C@@H](C)O` [CHEMBL583725], the “Type (known STAT3 active)” value is listed as “Active”.
With `CC(=O)OC[C@H](CCC(N)=O)NC(=O)[C@@H]1[C@@H]2C[C@@H]2CN1C(=O)[C@H](CC(C)C)NC(=O)/C=C/c1ccc(OP(=O)(O)O)cc1` [CHEMBL583726], the “Type (known STAT3 active)” value was “Active”.
As for `CC(C)C[C@H](NC(=O)/C=C/c1ccc(OP(=O)(O)O)cc1)C(=O)N1C[C@H]2C[C@H]2[C@H]1C(=O)NCCOCc1ccccc1` [CHEMBL583728], the “Type (known STAT3 active)” value was “Active”.
With `CC(C)C[C@H](NC(=O)[C@H](Cc1ccc(O)cc1)NC(=O)[C@H]1CCCN1C(=O)CN)C(=O)N1CCC[C@H]1C(=O)N[C@@H](CCC(N)=O)C(=O)N[C@H](C(=O)N[C@H](C(N)=O)C(C)C)[C@H](C)O` [CHEMBL2367507] (H-G[dP]YLPQ[aThr]V-NH2), the “Type (known STAT3 active)” value is on record as “Active”.

The data set is the same for the next values; noted with them: sheet 6QHD_actives_decoys; retrospective screening set for STAT3 SH2 domain (PDB 6QHD); […]; ref DUD-E; cited from earlier work.
Regarding `COc1cc([N+](=O)[O-])ccc1NC(=S)Nc1ccc(S(=O)(=O)Nc2ccc(Cl)nn2)cc1` [Decoy332], the Type entry was “Inactive (Decoy)”.

The same data set, now with this note: sheet 6QHD_actives_decoys; retrospective screening set for STAT3 SH2 domain (PDB 6QHD); decoys generated with DUD-E and presumed inactive, not tested; ref DUD-E; cited from earlier work.
Turning to `Nc1nc(OCc2cc(Br)cs2)c2ncn(CCCCCCCCO[C@@H]3O[C@@H](CO)[C@@H](O)[C@@H](O)[C@@H]3O)c2n1` [Decoy329], the Type result was “Inactive (Decoy)”.
With `Nc1nc(OCc2cc(Br)cs2)c2ncn(CCCCCCCCO[C@@H]3O[C@@H](CO)[C@@H](O)[C@@H](O)[C@H]3O)c2n1` [Decoy330], the Type result is “Inactive (Decoy)”.
Consider `Nc1nc(OCc2cc(Br)cs2)c2ncn(CCCCCCCCO[C@H]3O[C@@H](CO)[C@@H](O)[C@@H](O)[C@@H]3O)c2n1` [Decoy331], for which the Type entry is “Inactive (Decoy)”.
For the compound `COCC(=O)Nc1c(I)c(C(=O)NC[C@H](O)CO)c(I)c(C(=O)N(C)C[C@H](O)CO)c1I` [Decoy333], the Type result was “Inactive (Decoy)”.
On to `CNc1ncnc2c1ncn2[C@H]1C[C@H](O)[C@@H](COC(c2ccccc2)(c2ccc(OC)cc2)c2ccc(OC)cc2)O1` [Decoy334], for which the Type result is given as “Inactive (Decoy)”.
In the case of `COC(=O)c1ccc(C(=O)OC)c(NC(=O)c2ccc(C(=O)Nc3cc(C(=O)OC)ccc3C(=O)OC)cc2)c1` [Decoy335], the Type entry is on record as “Inactive (Decoy)”.
On to `C=CCn1c(Cc2csc(N)n2)nnc1SCC(=O)Nc1ccc(S(=O)(=O)Nc2cc(C)on2)cc1` [Decoy336], for which the Type result is recorded as “Inactive (Decoy)”.
As for `COc1ccc([C@H](C(=O)NCS(=O)(=O)c2ccc(C)cc2)N(Cc2ccco2)C(=O)CCl)cc1` [Decoy337], the Type entry is given as “Inactive (Decoy)”.
Take `COC(=O)[C@@H]1O[C@H](OC/C(=N/NC(N)=O)[C@@]2(O)CC[C@@H]3[C@@H]4CC[C@@H]5C[C@H](OC(C)=O)CC[C@@]5(C)[C@H]4C(=O)C[C@]32C)[C@@H](OC(C)=O)[C@H](OC(C)=O)[C@H]1OC(C)=O` [Decoy338]: the Type result was “Inactive (Decoy)”.
For the compound `COC(=O)[C@@H]1O[C@H](OC/C(=N/NC(N)=O)[C@@]2(O)CC[C@@H]3[C@@H]4CC[C@@H]5C[C@H](OC(C)=O)CC[C@]5(C)[C@H]4C(=O)C[C@]32C)[C@@H](OC(C)=O)[C@H](OC(C)=O)[C@H]1OC(C)=O` [Decoy339], the Type result was “Inactive (Decoy)”.
In the case of `COC(=O)[C@@H]1O[C@H](OC/C(=N/NC(N)=O)[C@@]2(O)CC[C@@H]3[C@@H]4CC[C@H]5C[C@H](OC(C)=O)CC[C@@]5(C)[C@H]4C(=O)C[C@]32C)[C@@H](OC(C)=O)[C@H](OC(C)=O)[C@H]1OC(C)=O` [Decoy340], the Type entry is reported as “Inactive (Decoy)”.
On to `COC(=O)/C(=N/NC(C)(C)C)[C@@H](C(=O)C(=O)Nc1cc(C)ccc1C)c1nc2ccccc2[nH]c1=O` [Decoy341], for which the Type result is on record as “Inactive (Decoy)”.
In the case of `C/C=C(/C[C@@H](O)N(C=O)Cc1cnc(C)nc1N)SS/C(=C/C)C[C@@H](O)N(C=O)Cc1cnc(C)nc1N` [Decoy342], the Type result was “Inactive (Decoy)”.
With `C=CCSc1nnc(/N=C(\O)CSc2nnc(N/N=C/c3c(O)ccc4ccccc34)n2N)s1` [Decoy343], the Type entry is on record as “Inactive (Decoy)”.
